According to patent US11090319B2, “Therapeutic uses of pharmaceutical compositions comprising cyclic boronic acid ester derivatives” (Melinta Subsidiary Corp., priority 2010, dated 2021):

Tests used:
[1] = system: strains expressing KPC alone or in combination with additional beta-lactamases; test: microbe, parasite or virus in culture; format: cell-based
[2] = system: strains expressing class A ESBLs; format: cell-based
Method: Selected β-lactamase inhibitors were also tested for their ability to potentiate the monobactam tigemonam.

[3] = Klebsiella pneumoniae KP 1008, KPC-2, Compound 5 0.31 mg/L
[4] = Klebsiella pneumoniae KP 1008, KPC-2, Compound 5 0.625 mg/L
[5] = Klebsiella pneumoniae KP 1008, KPC-2, Compound 5 […]
[6] = Klebsiella pneumoniae KP1082, KPC-2 SHV-1, Compound 5 0.31 mg/L
[7] = Klebsiella pneumoniae KP1082, KPC-2 SHV-1, Compound 5 0.625 mg/L
[8] = Klebsiella pneumoniae KP1082, KPC-2 SHV-1, Compound 5 5 mg/L
[9] = Klebsiella pneumoniae KP1082, KPC-2 SHV-1, Compound 5 10 mg/L
[10] = Klebsiella pneumoniae KP1082, KPC-2 SHV-1, Compound 5 […]
[11] = Klebsiella pneumoniae KP1083, KPC-3, SHV-1, TEM-1, Compound 5 10 mg/L
[12] = Klebsiella pneumoniae KP1083, KPC-3, SHV-1, TEM-1, Compound 5 […]
[13] = Klebsiella pneumoniae KP1084, KPC-3, SHV-11, TEM-1, Compound 5 5 mg/L
[14] = Klebsiella pneumoniae KP1084, KPC-3, SHV-11, TEM-1, Compound 5 10 mg/L
[15] = Klebsiella pneumoniae KP 1087, KPC-2, CTX-M-15, SHV-11, TEM-1, Compound 5 0.31 mg/L
[16] = Klebsiella pneumoniae KP 1087, KPC-2, CTX-M-15, SHV-11, TEM-1, Compound 5 0.625 mg/L
[17] = Klebsiella pneumoniae KP 1087, KPC-2, CTX-M-15, SHV-11, TEM-1, Compound 5 5 mg/L
[18] = Klebsiella pneumoniae KP 1087, KPC-2, CTX-M-15, SHV-11, TEM-1, Compound 5 10 mg/L
[19] = Klebsiella pneumoniae KP1088, KPC-3, SHV-11, TEM-1, Compound 5 0.31 mg/L
[20] = Klebsiella pneumoniae KP1088, KPC-3, SHV-11, TEM-1, Compound 5 0.625 mg/L
[21] = Klebsiella pneumoniae KP1088, KPC-3, SHV-11, TEM-1, Compound 5 5 mg/L
[22] = Klebsiella pneumoniae KP1088, KPC-3, SHV-11, TEM-1, Compound 5 10 mg/L

In the case of `O=C(O)C[C@@H]1CC[C@H](NC(=O)Cc2cccs2)B(O)O1` [Compound 5, 2-((3R,6S)-2-hydroxy-3-(2-(thiophen-2-yl)acetamido)-1,2-oxaborinan-6-yl)acetic acid], the “MIC of Biapenem” value ([1]; Klebsiella pneumoniae KP 1004, KPC-2, Compound 5 […]) is reported as “X (MIC of less than 0.5 mg/L)”, the “MIC of Biapenem” value [1, 3] is reported as “X (MIC of less than 0.5 mg/L)” and the “MIC of Doripenem” value [1, 3] is reported as “X (MIC of less than 0.5 mg/L)”. The “MIC of Ertapenem” value [1, 3] was “X (MIC of less than 0.5 mg/L)”, the “MIC of Biapenem” value [1, 4] was “X (MIC of less than 0.5 mg/L)” and the “MIC of Doripenem” value [1, 4] was “X (MIC of less than 0.5 mg/L)”. The “MIC of Ertapenem” value [1, 4] was “X (MIC of less than 0.5 mg/L)”, the “MIC of Biapenem” value [1, 5] was “X (MIC of less than 0.5 mg/L)” and the “MIC of Doripenem” value [1, 5] was “X (MIC of less than 0.5 mg/L)”. The “MIC of Ertapenem” value [1, 5] was “X (MIC of less than 0.5 mg/L)”, the “MIC of Biapenem” value [1, 6] was “X (MIC of less than 0.5 mg/L)” and the “MIC of Doripenem” value [1, 6] was “X (MIC of less than 0.5 mg/L)”. The “MIC of Ertapenem” value [1, 6] was “X (MIC of less than 0.5 mg/L)”, the “MIC of Biapenem” value [1, 7] was “X (MIC of less than 0.5 mg/L)” and the “MIC of Doripenem” value [1, 7] was “X (MIC of less than 0.5 mg/L)”. The “MIC of Ertapenem” value [1, 7] was “X (MIC of less than 0.5 mg/L)”, the “MIC of Biapenem” value [1, 8] was “X (MIC of less than 0.5 mg/L)” and the “MIC of Doripenem” value [1, 8] was “X (MIC of less than 0.5 mg/L)”. The “MIC of Ertapenem” value [1, 8] was “X (MIC of less than 0.5 mg/L)”, the “MIC of Biapenem” value [1, 9] was “X (MIC of less than 0.5 mg/L)” and the “MIC of Doripenem” value [1, 9] was “X (MIC of less than 0.5 mg/L)”. For the same molecule, the “MIC of Ertapenem” value [1, 9] was “X (MIC of less than 0.5 mg/L)”, the “MIC of Biapenem” value [1, 10] was “X (MIC of less than 0.5 mg/L)” and the “MIC of Doripenem” value [1, 10] was “X (MIC of less than 0.5 mg/L)”. For the same molecule, the “MIC of Ertapenem” value [1, 10] was “X (MIC of less than 0.5 mg/L)”, the “MIC of Doripenem” value [1, 11] was “X (MIC of less than 0.5 mg/L)” and the “MIC of Ertapenem” value [1, 11] was “X (MIC of less than 0.5 mg/L)”. The “MIC of Doripenem” value [1, 12] was “Y (MIC of 0.5 mg/L to 4 mg/L)”, the “MIC of Ertapenem” value [1, 12] was “Y (MIC of 0.5 mg/L to 4 mg/L)” and the “MIC of Ertapenem” value ([1]; Klebsiella pneumoniae KP1084, KPC-3, SHV-11, TEM-1, Compound 5 0.31 mg/L) was “Z (MIC of greater than 4 mg/L)”. The “MIC of Ertapenem” value ([1]; Klebsiella pneumoniae KP1084, KPC-3, SHV-11, TEM-1, Compound 5 0.625 mg/L) was “Z (MIC of greater than 4 mg/L)”, the “MIC of Biapenem” value [1, 13] was “X (MIC of less than 0.5 mg/L)” and the “MIC of Doripenem” value [1, 13] was “Y (MIC of 0.5 mg/L to 4 mg/L)”. For the same molecule, the “MIC of Ertapenem” value [1, 13] was “Y (MIC of 0.5 mg/L to 4 mg/L)”, the “MIC of Biapenem” value [1, 14] was “X (MIC of less than 0.5 mg/L)” and the “MIC of Doripenem” value [1, 14] was “X (MIC of less than 0.5 mg/L)”. For the same molecule, the “MIC of Ertapenem” value [1, 14] was “Y (MIC of 0.5 mg/L to 4 mg/L)”, the “MIC of Ertapenem” value ([1]; Klebsiella pneumoniae KP1084, KPC-3, SHV-11, TEM-1, Compound 5 […]) was “Z (MIC of greater than 4 mg/L)” and the “MIC of Biapenem” value [1, 15] was “Z (MIC of greater than 4 mg/L)”. The “MIC of Doripenem” value [1, 15] was “Z (MIC of greater than 4 mg/L)”, the “MIC of Ertapenem” value [1, 15] was “Z (MIC of greater than 4 mg/L)” and the “MIC of Biapenem” value [1, 16] was “Z (MIC of greater than 4 mg/L)”. For the same molecule, the “MIC of Doripenem” value [1, 16] was “Z (MIC of greater than 4 mg/L)”, the “MIC of Ertapenem” value [1, 16] was “Z (MIC of greater than 4 mg/L)” and the “MIC of Biapenem” value [1, 17] was “X (MIC of less than 0.5 mg/L)”. For the same molecule, the “MIC of Doripenem” value [1, 17] was “Y (MIC of 0.5 mg/L to 4 mg/L)”, the “MIC of Ertapenem” value [1, 17] was “Y (MIC of 0.5 mg/L to 4 mg/L)” and the “MIC of Biapenem” value [1, 18] was “X (MIC of less than 0.5 mg/L)”. For the same molecule, the “MIC of Doripenem” value [1, 18] was “X (MIC of less than 0.5 mg/L)”, the “MIC of Ertapenem” value [1, 18] was “Y (MIC of 0.5 mg/L to 4 mg/L)” and the “MIC of Ertapenem” value ([1]; Klebsiella pneumoniae KP 1087, KPC-2, CTX-M-15, SHV-11, TEM-1, Compound 5 […]) was “Z (MIC of greater than 4 mg/L)”. For the same molecule, the “MIC of Biapenem” value [1, 19] was “X (MIC of less than 0.5 mg/L)”, the “MIC of Doripenem” value [1, 19] was “Y (MIC of 0.5 mg/L to 4 mg/L)” and the “MIC of Ertapenem” value [1, 19] was “Y (MIC of 0.5 mg/L to 4 mg/L)”. The “MIC of Biapenem” value [1, 20] was “X (MIC of less than 0.5 mg/L)”, the “MIC of Doripenem” value [1, 20] was “X (MIC of less than 0.5 mg/L)” and the “MIC of Ertapenem” value [1, 20] was “X (MIC of less than 0.5 mg/L)”. The “MIC of Biapenem” value [1, 21] was “X (MIC of less than 0.5 mg/L)”, the “MIC of Doripenem” value [1, 21] was “X (MIC of less than 0.5 mg/L)” and the “MIC of Ertapenem” value [1, 21] was “X (MIC of less than 0.5 mg/L)”. The “MIC of Biapenem” value [1, 22] was “X (MIC of less than 0.5 mg/L)”, the “MIC of Doripenem” value [1, 22] was “X (MIC of less than 0.5 mg/L)” and the “MIC of Ertapenem” value [1, 22] was “X (MIC of less than 0.5 mg/L)”. The “MPC4 CTX-M-14 KP1005” value [2] was “Z (key: X: MPC@4 of less than 2 μg/mL; Y: MPC@4 of 2 μg/mL to 10 μg/mL; Z: MPC@4 of greater than 10 μg/mL)”, the “MPC4 CTX-M-15 KP1009” value [2] was “Z (key: X: MPC@4 of less than 2 μg/mL; Y: MPC@4 of 2 μg/mL to 10 μg/mL; Z: MPC@4 of greater than 10 μg/mL)” and the “MPC4 SHV-5 ec308” value [2] was “Z (key: X: MPC@4 of less than 2 μg/mL; Y: MPC@4 of 2 μg/mL to 10 μg/mL; Z: MPC@4 of greater than 10 μg/mL)”. For the same molecule, the “MPC4 SHV-12 KP1010” value [2] was “Z (key: X: MPC@4 of less than 2 μg/mL; Y: MPC@4 of 2 μg/mL to 10 μg/mL; Z: MPC@4 of greater than 10 μg/mL)”, the “MPC4 SHV-18 KP1012” value [2] was “Z (key: X: MPC@4 of less than 2 μg/mL; Y: MPC@4 of 2 μg/mL to 10 μg/mL; Z: MPC@4 of greater than 10 μg/mL)” and the “MPC4 TEM-10 EC1009” value [2] was “Z (key: X: MPC@4 of less than 2 μg/mL; Y: MPC@4 of 2 μg/mL to 10 μg/mL; Z: MPC@4 of greater than 10 μg/mL)”. For the same molecule, the “MPC4 TEM-10 ec302” value [2] was “Z (key: X: MPC@4 of less than 2 μg/mL; Y: MPC@4 of 2 μg/mL to 10 μg/mL; Z: MPC@4 of greater than 10 μg/mL)” and the “MPC4 TEM-26 ec304” value [2] was “Z (key: X: MPC@4 of less than 2 μg/mL; Y: MPC@4 of 2 μg/mL to 10 μg/mL; Z: MPC@4 of greater than 10 μg/mL)”.
